Results from patent US20160235727A1, “NOVEL PYRROLIDINE DERIVED BETA 3 ADRENERGIC RECEPTOR AGONISTS” (Merck Sharp & Dohme Corp., priority 2013, published 2016).

Target: T1, human β3-AR (Homo sapiens, UniProt P13945)
T1 construct: expressed in transfected cells; host or cells: CHO (Chinese hamster ovary) cells, stably transfected
Experiment: cAMP functional agonist assay (LANCE TR-FRET) in CHO cells expressing cloned human β3-AR
Type: cell-based
Details: for EC50: CHO cells stably expressing cloned human β3-adrenoceptor, cAMP release, read-out: Human β3-AR Agonism EC50; for Fold drop in potency vs. 2-chloropyridine analog: EC50 of comparative example divided by EC50 of corresponding 2-chloropyridine compound; for Human β3-AR Agonist Activity (%): percent maximum activation relative to isoproterenol
Experimental: The ability of compounds to activate the human β3-AR receptor was measured using a CHO cell line stably expressing the cloned human β1-, β2-, and β3-adrenoceptors (β-AR). […] To quantify the amount of cAMP released following β-AR activation, the LANCE cAMP kit (Perking Elmer), a time-resolved fluorescence resonance energy transfer immunoassay, was used. Compounds were serially diluted in DMSO and an aliquot added to either 384-well or 96-well micro titer plates in assay buffer (5 mM HEPES, 0.1% BSA in Hank's Balanced Salt Solution). […] Following 30 min incubation at room temperature, the cells were lysed by the addition of LANCE detection buffer which contained a europium-labeled cAMP tracer. Fluorescence was measured following one hour incubation at room temperature using a Perking Elmer Envision plate reader, exciting at 340 nm and measuring emission at 615 nm and 665 nm. For each assay, a cAMP standard curve was included and used to convert fluorescence readings directly to cAMP amounts. The values were then normalized to isoproterenol, a known full agonist of β-AR, which was titrated in every assay and the EC50 determined using a custom in-house data analysis package. Along with EC50, the percent maximum activation relative to isoproterenol is reported.
The cAMP production is measured using a homogenous time-resolved fluorescence resonance energy transfer immunoassay (LANCE™, Perkin Elmer) according to the manufacture's instructions. Chinese hamster ovary (CHO) cells, stably transfected with the cloned β-adrenergic receptor (β1, β2 or β3) are harvested after 3 days of subculturing. Harvesting of cells is done with Enzyme-free Dissociation Media (Specialty Media). Cells are then counted and resuspended in assay buffer (Hank's Balanced salt solution supplemented with 5 mM HEPES, […]) containing a phosphodiesterase inhibitor (IBMX, 0.6 mM). The reaction is initiated by mixing 6,000 cells in 6 μL with 6 μL Alexa Fluor labeled cAMP antibody (LANCE™ kit) which is then added to an assay well containing 12 μL of compound (diluted in assay buffer to 2× final concentration). The reaction proceeds for 30 minutes at RT and is terminated by the addition of 24 ul detection buffer (LANCE™ kit). The assay plate is then incubated for 1 h at RT and time-resolved fluorescence measured on a Perkin Elmer Envision reader or equivalent. The unknown cAMP level is determined by comparing fluorescence levels to a cAMP standard curve.
The non-selective, full agonist β-adrenergic ligand isoproterenol is used at all three receptors to determine maximal stimulation. […] Data are analyzed using Microsoft Excel and Graphpad Prism or an internally developed data analysis software package. […]

T1 sequence (P13945 whole entry): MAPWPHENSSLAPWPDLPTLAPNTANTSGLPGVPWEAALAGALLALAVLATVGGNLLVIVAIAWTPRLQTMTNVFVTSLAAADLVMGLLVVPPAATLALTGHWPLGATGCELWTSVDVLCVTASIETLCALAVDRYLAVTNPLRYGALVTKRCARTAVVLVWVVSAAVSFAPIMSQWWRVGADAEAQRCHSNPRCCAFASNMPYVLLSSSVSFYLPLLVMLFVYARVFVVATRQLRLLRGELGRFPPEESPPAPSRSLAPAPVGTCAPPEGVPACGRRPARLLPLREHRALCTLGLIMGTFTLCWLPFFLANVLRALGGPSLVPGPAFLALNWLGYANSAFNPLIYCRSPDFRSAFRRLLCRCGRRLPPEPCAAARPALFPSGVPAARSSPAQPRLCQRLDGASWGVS

EC50 | Fold drop in potency vs. 2-chloropyridine analog | Human β3-AR Agonist Activity (%) | Structure (SMILES)
96 nM |  | 100% | COCCN(C)C(=O)c1ccc(C[C@@H]2CC[C@H]([C@H](O)c3ccc(Cl)nc3)N2)cc1 [Example 1-A]
443 nM | 4.6 fold | 93% | COCCN(C)C(=O)c1ccc(C[C@@H]2CC[C@H]([C@H](O)c3ccccc3)N2)cc1 [Example 1-B, 4-(((2S,5R)-5-((R)-hydroxy(phenyl)methyl)pyrrolidin-2-yl)methyl)-N-(2-methoxyethyl)-N-methylbenzamide]
118 nM |  | 86% | COC(C)CN(C)C(=O)c1ccc(C[C@@H]2CC[C@H]([C@H](O)c3ccc(Cl)nc3)N2)cc1 (stereo partly drawn) [Example 2-A, 4-(((2S,5R)-5-((R)-(6-chloropyridin-3-yl)(hydroxy)methyl)pyrrolidin-2-yl)methyl)-N-(2-methoxypropyl)-N-methylbenzamide]
204 nM |  | 81% | COC(CN(C)C(=O)c1ccc(C[C@@H]2CC[C@H]([C@H](O)c3ccc(Cl)nc3)N2)cc1)c1cccc(=O)[nH]1 (stereo partly drawn) [Example 3-A, 4-(((2S,5R)-5-((R)-(6-chloropyridin-3-yl)(hydroxy)methyl)pyrrolidin-2-yl)methyl)-N-(2-methoxy-2-(6-oxo-1,6-dihydropyridin-2-yl)ethyl)-N-methylbenzamide]
410 nM | 2.0 fold | 101% | COC(CN(C)C(=O)c1ccc(C[C@@H]2CC[C@H]([C@H](O)c3ccccc3)N2)cc1)c1cccc(=O)[nH]1 (stereo partly drawn) [Example 3-B, 4-(((2S,5R)-5-((R)-hydroxy(phenyl)methyl)pyrrolidin-2-yl)methyl)-N-(2-methoxy-2-(6-oxo-1,6-dihydropyridin-2-yl)ethyl)-N-methylbenzamide]
5 nM |  | 104% | Cc1cc(CN(C)C(=O)c2ccc(C[C@@H]3CC[C@H]([C@H](O)c4ccc(Cl)nc4)N3)cc2)n[nH]1 [Example 4-A, 4-(((2S,5R)-5-((R)-(6-chloropyridin-3-yl)(hydroxy)methyl)pyrrolidin-2-yl)methyl)-N-methyl-N-((5-methyl-1H-pyrazol-3-yl)methyl)benzamide]
14 nM | 2.6 fold | 108% | Cc1cc(CN(C)C(=O)c2ccc(C[C@@H]3CC[C@H]([C@H](O)c4ccccc4)N3)cc2)n[nH]1 [Example 4-B, 4-(((2S,5R)-5-((R)-hydroxy(phenyl)methyl)pyrrolidin-2-yl)methyl)-N-methyl-N-((5-methyl-1H-pyrazol-3-yl)methyl)benzamide]
90 nM | 16.4 fold | 79% | Cc1cc(CN(C)C(=O)c2ccc(C[C@@H]3CC[C@H]([C@H](O)c4ccc(OC(F)F)cc4)N3)cc2)n[nH]1 [Example 4-E, 4-(((2S,5R)-5-((R)-(4-(difluoromethoxy)phenyl)(hydroxy)methyl)pyrrolidin-2-yl)methyl)-N-methyl-N-((5-methyl-1H-pyrazol-3-yl)methyl)benzamide]
19 nM | 3.5 fold | 105% | Cc1cc(CN(C)C(=O)c2ccc(C[C@@H]3CC[C@H]([C@H](O)c4ccc(F)cc4)N3)cc2)n[nH]1 [Example 4-F, 4-(((2S,5R)-5-((R)-(4-fluorophenyl)(hydroxy)methyl)pyrrolidin-2-yl)methyl)-N-methyl-N-((5-methyl-1H-pyrazol-3-yl)methyl)benzamide]
4 nM | 0.8 fold | 95% | Cc1cc(CN(C)C(=O)c2ccc(C[C@@H]3CC[C@H]([C@H](O)c4ccc(Cl)cc4)N3)cc2)n[nH]1 [Example 4-G, 4-(((2S,5R)-5-((R)-(4-chlorophenyl)(hydroxy)methyl)pyrrolidin-2-yl)methyl)-N-methyl-N-((5-methyl-1H-pyrazol-3-yl)methyl)benzamide]
78 nM | 14.4 fold | 106% | Cc1cc(CN(C)C(=O)c2ccc(C[C@@H]3CC[C@H]([C@H](O)c4ccc(F)nc4)N3)cc2)n[nH]1 [Example 4-Q, 4-(((2S,5R)-5-((R)-(6-fluoropyridin-3-yl)(hydroxy)methyl)pyrrolidin-2-yl)methyl)-N-methyl-N-((5-methyl-1H-pyrazol-3-yl)methyl)benzamide]
2 nM |  | 102% | CCC(c1cc(C)n[nH]1)N(C)C(=O)c1ccc(C[C@@H]2CC[C@H]([C@H](O)c3ccc(Cl)nc3)N2)cc1 (stereo partly drawn) [Example 5-A, 4-(((2S,5R)-5-((R)-(6-chloropyridin-3-yl)(hydroxy)methyl)pyrrolidin-2-yl)methyl)-N-methyl-N-(1-(5-methyl-1H-pyrazol-3-yl)propyl)benzamide]
3 nM | 1.6 fold | 106% | CCC(c1cc(C)[nH]n1)N(C)C(=O)c1ccc(C[C@@H]2CC[C@H]([C@H](O)c3cccnc3)N2)cc1 (stereo partly drawn) [Example 5-H, 4-(((2S,5R)-5-((R)-hydroxy(pyridin-3-yl)methyl)pyrrolidin-2-yl)methyl)-N-methyl-N-(1-(5-methyl-1H-pyrazol-3-yl)propyl)benzamide]
3 nM |  | 93% | Cc1cc(C(Cc2ccccc2)N(C)C(=O)c2ccc(C[C@@H]3CC[C@H]([C@H](O)c4ccc(Cl)nc4)N3)cc2)[nH]n1 (stereo partly drawn) [Example 6-A, 4-(((2S,5R)-5-((R)-(6-chloropyridin-3-yl)(hydroxy)methyl)pyrrolidin-2-yl)methyl)-N-methyl-N-(1-(5-methyl-1H-pyrazol-3-yl)-2-phenylethyl)benzamide]
7 nM | 2.4 fold | 92% | Cc1cc(C(Cc2ccccc2)N(C)C(=O)c2ccc(C[C@@H]3CC[C@H]([C@H](O)c4cccnc4)N3)cc2)[nH]n1 (stereo partly drawn) [Example 6-H, 4-(((2S,5R)-5-((R)-hydroxy(pyridin-3-yl)methyl)pyrrolidin-2-yl)methyl)-N-methyl-N-(1-(5-methyl-1H-pyrazol-3-yl)-2-phenylethyl)benzamide]
59 nM |  | 95% | CC(C)c1cc(CN(C)C(=O)c2ccc(C[C@@H]3CC[C@H]([C@H](O)c4ccc(Cl)nc4)N3)cc2)n[nH]1 [Example 7-A, 4-(((2S,5R)-5-((R)-(6-chloropyridin-3-yl)(hydroxy)methyl)pyrrolidin-2-yl)methyl)-N-((5-isopropyl-1H-pyrazol-3-yl)methyl)-N-methylbenzamide]
188 nM | 3.2 fold | 110% | CC(C)c1cc(CN(C)C(=O)c2ccc(C[C@@H]3CC[C@H]([C@H](O)c4ccccc4)N3)cc2)n[nH]1 [Example 7-B, 4-(((2S,5R)-5-((R)-hydroxy(phenyl)methyl)pyrrolidin-2-yl)methyl)-N-((5-isopropyl-1H-pyrazol-3-yl)methyl)-N-methylbenzamide]
20 nM |  | 103% | CN(Cc1cc(C2CC2)[nH]n1)C(=O)c1ccc(C[C@@H]2CC[C@H]([C@H](O)c3ccc(Cl)nc3)N2)cc1 [Example 8-A, 4-(((2S,5R)-5-((R)-(6-chloropyridin-3-yl)(hydroxy)methyl)pyrrolidin-2-yl)methyl)-N-((5-cyclopropyl-1H-pyrazol-3-yl)methyl)-N-methylbenzamide]

Structure (SMILES) | EC50 | Fold drop in potency vs. 2-chloropyridine analog | Human β3-AR Agonist Activity (%)
COC(C)CN(C)C(=O)c1ccc(C[C@@H]2CC[C@H]([C@H](O)c3ccccc3)N2)cc1 (mixture of isomers) [Example 2-B, 4-(((2S,5R)-5-((R)-hydroxy(phenyl)methyl)pyrrolidin-2-yl)methyl)-N-(2-methoxypropyl)-N-methylbenzamide] | 168 nM | 1.4 fold | 94%
Cc1cc(CN(C)C(=O)c2ccc(C[C@@H]3CC[C@H]([C@H](O)c4cncc(F)c4)N3)cc2)[nH]n1 [Example 4-R, 4-(((2S,5R)-5-((R)-(5-fluoropyridin-3-yl)(hydroxy)methyl)pyrrolidin-2-yl)methyl)-N-methyl-N-((5-methyl-1H-pyrazol-3-yl)methyl)benzamide] | 45 nM | 8.3 fold | 101%
